Results on 37 compounds are retold here after patent US8546383B2, “Chiral fused [1,2]imidazo[4,5-c] ring compounds” (3M Innovative Properties Company, priority 2004, dated 2013).

Where a name gives a salt, the structure may show the parent alone.

As a reminder, the melting point is the temperature of the solid-liquid transition. In turn, `CC(C)(F)[C@H]1COCc2nc3c(N)nc4ccccc4c3n21` [Example 11, (11R)-11-(1-Fluoro-1-methylethyl)-10,11-dihydro-8H-[1,4]oxazino[4′,3′:1,2]imidazo[4,5-c]quinolin-6-amine] had a melting point of 242 to 244 °C. In the case of `CC(C)(O)[C@@H]1COCc2nc3c(N)nc4ccccc4c3n21` (as salt: hydrochloride) [Example 31] it was 218 to 219 °C. For `CC(C)(F)[C@@H]1COCc2nc3c(N)nc4ccccc4c3n21` [Example 30] the value was 242 to 244 °C; for `Nc1nc2ccccc2c2c1nc1n2[C@@H](Cc2ccc(F)cc2)COC1` [Example 46, (11S)-11-(4-Fluorobenzyl)-10,11-dihydro-8H-[1,4]oxazino[4′,3′:1,2]imidazo[4,5-c]quinolin-6-amine], 170 to 172 °C; for `CC(C)(F)[C@H]1COCc2nc3c(N)nc4c(c3n21)CCCC4` [Example 12, (11R)-11-(1-Fluoro-1-methylethyl)-2,3,4,8,10,11-hexahydro-1H-[1,4]oxazino[4′,3′:1,2]imidazo[4,5-c]quinolin-6-amine], 195.5 to 197 °C. In the case of `CC(C)[C@H]1COCc2nc3c(N)nc4cc(O)ccc4c3n21` [Example 4, (11S)-6-Amino-11-isopropyl-10,11-dihydro-8H-[1,4]oxazino[4′,3′:1,2]imidazo[4,5-c]quinolin-3-ol] it was 210 to 215 °C. With `C[C@H]1COCc2nc3c(N)nc4cc(/C=C/C(=O)N5CCOCC5)ccc4c3n21` [Example 62, (11S)-11-Methyl-3-[(1E)-3-morpholin-4-yl-3-oxoprop-1-enyl]-10,11-dihydro-8H-[1,4]oxazino[4′,3′:1,2]imidazo[4,5-c]quinolin-6-amine], the melting point was greater than 250 °C. In the case of `Nc1nc2ccccc2c2c1nc1n2[C@H](c2ccccc2)COC1` [Example 28] it was 284 to 286 °C; in that of `Cc1nc(COc2ccc3nc(N)c4nc5n(c4c3c2)[C@@H](C)COC5)cs1` [Example 52, (11S)-11-Methyl-2-[(2-methyl-1,3-thiazol-4-yl)methoxy]-10,11-dihydro-8H-[1,4]oxazino[4′,3′:1,2]imidazo[4,5-c]quinolin-6-amine], 105 to 107 °C. For `C[C@H]1COCc2nc3c(N)nc4cc(O)ccc4c3n21` [Example 8, (11S)-6-Amino-11-methyl-10,11-dihydro-8H-[1,4]oxazino[4′,3′:1,2]imidazo[4,5-c]quinolin-3-ol] the value was greater than 250 °C; for `CC(C)(O)[C@H]1COCc2nc3c(N)nc4cccnc4c3n21` [Example 33, 2-[(11R)-6-Amino-10,11-dihydro-8H-[1,4]oxazino[4′,3′:1,2]imidazo[4,5-c]-1,5-naphthyridin-11-yl]propan-2-ol], 242 to 246 °C; for `CC(C)[C@@H]1COCc2nc3c(N)nc4ccccc4c3n21` [Example 25], 248 to 249 °C. In the case of `CC(C)[C@H]1COCc2nc3c(N)nc4cc(OCCN5CCOCC5)ccc4c3n21` [Example 59, (11S)-11-Isopropyl-3-(2-morpholin-4-ylethoxy)-10,11-dihydro-8H-[1,4]oxazino[4′,3′:1,2]imidazo[4,5-c]quinolin-6-amine] it was 194 to 195 °C; in that of `CC(C)[C@H]1COCc2nc3c(N)nc4cccnc4c3n21` [Example 14, (11S)-11-Isopropyl-10,11-dihydro-8H-[1,4]oxazino[4′,3′:1,2]imidazo[4,5-c][1,5]naphthyridin-6-amine], 194 to 196 °C.

`CC(C)[C@H]1COCc2nc3c(N)nc4c(c3n21)CCCC4` [Example 2, (11S)-11-Isopropyl-2,3,4,8,10,11-hexahydro-1H-[1,4]oxazino[4′,3′:1,2]imidazo[4,5-c]quinolin-6-amine]: the melting point was 158 to 160 °C. In the case of `C#CCOc1ccc2nc(N)c3nc4n(c3c2c1)[C@@H](C)COC4` [Example 51, (11S)-11-Methyl-2-(prop-2-ynyloxy)-10,11-dihydro-8H-[1,4]oxazino[4′,3′:1,2]imidazo[4,5-c]quinolin-6-amine] it was 184 to 186 °C; in that of `C[C@H]1COCc2nc3c(N)nc4cc(OCc5ccccc5)ccc4c3n21` [Example 7, (11S)-3-(Benzyloxy)-11-methyl-10,11-dihydro-8H-[1,4]oxazino[4′,3′:1,2]imidazo[4,5-c]quinolin-6-amine], 218 to 220 °C. For `CC1CCOCc2nc3c(N)nc4cc(Br)ccc4c3n21` (stereo not shown) [Example 22, 3-Bromo-12-methyl-11,12-dihydro-8H,10H-[1,4]oxazepino[4′,3′:1,2]imidazo[4,5-c]quinolin-6-amine] the value was 247 to 248 °C; for `CC(C)(O)[C@H]1COCc2nc3c(N)nc4ccccc4c3n21` [Example 13, 2-[(11R)-6-Amino-10,11-dihydro-8H-[1,4]oxazino[4′,3′:1,2]imidazo[4,5-c]quinolin-11-yl]propan-2-ol], 216 to 217 °C; for `Nc1nc2ccccc2c2c1nc1n2[C@@H](C2CCCCC2)COC1` [Example 47, (11S)-11-Cyclohexyl-10,11-dihydro-8H-[1,4]oxazino[4′,3′:1,2]imidazo[4,5-c]quinolin-6-amine], 228 to 230 °C. For `C[C@H]1COCc2nc3c(N)nc4ccc(O)cc4c3n21` [Example 21, (11S)-6-Amino-11-methyl-10,11-dihydro-8H-[1,4]oxazino[4′,3′:1,2]imidazo[4,5-c]quinolin-2-ol] the value was 262 to 264 °C. `Nc1nc2ccccc2c2c1nc1n2[C@@H](COCc2ccccc2)COC1` [Example 34, (11S)-11-[(Benzyloxy)methyl]-10,11-dihydro-8H-[1,4]oxazino[4′,3′:1,2]imidazo[4,5-c]quinolin-6-amine]: the melting point is 184.6 to 186.2 °C.

In turn, `Nc1nc2ccccc2c2c1nc1n2[C@@H](Cc2ccccc2)COC1` [Example 10, (11S)-11-Benzyl-10,11-dihydro-8H-[1,4]oxazino[4′,3′:1,2]imidazo[4,5-c]quinolin-6-amine] had a melting point of 170 to 177 °C. For `CC(C)(F)[C@H]1COCc2nc3c(N)nc4cccnc4c3n21` [Example 16, (11R)-11-(1-Fluoro-1-methylethyl)-10,11-dihydro-8H-[1,4]oxazino[4′,3′:1,2]imidazo[4,5-c][1,5]naphthyridin-6-amine] the value was 192 to 194 °C. For `C[C@H]1COCc2nc3c(N)nc4cc(CCC(=O)N(C)C)ccc4c3n21` [Example 64, 3-[(11S)-6-Amino-11-methyl-10,11-dihydro-8H-[1,4]oxazino[4′,3′:1,2]imidazo[4,5-c]quinolin-3-yl]-N,N-dimethylpropanamide] the value was 235 to 237 °C; for `C[C@H]1CN(S(C)(=O)=O)Cc2nc3c(N)nc4ccccc4c3n21` [Example 23, (11S)-11-Methyl-9-(methylsulfonyl)-8,9,10,11-tetrahydropyrazino[1′,2′:1,2]imidazo[4,5-c]quinolin-6-amine], 258 to 261 °C. In the case of `c1ccc2c(c1)ncc1nc3n(c12)[C@@H](C1CCOCC1)COC3` [Example 42, (11S)-11-Tetrahydro-2H-pyran-4-yl-10,11-dihydro-8H-[1,4]oxazino[4′,3′:1,2]imidazo[4,5-c]quinoline] it was 234 to 237 °C; in that of `Nc1nc2ccccc2c2c1nc1n2[C@@H](CO)COC1` [Example 35, [(11S)-6-Amino-10,11-dihydro-8H-[1,4]oxazino[4′,3′:1,2]imidazo[4,5-c]quinolin-11-yl]methanol], 238.6 to 239.8 °C. As for `C[C@H]1COCc2nc3c(N)nc4cccnc4c3n21` [Example 15, (11S)-11-Methyl-10,11-dihydro-8H-[1,4]oxazino[4′,3′:1,2]imidazo[4,5-c][1,5]naphthyridin-6-amine], the melting point lay within 240 to 242 °C. For `CC(C)[C@H]1COCc2nc3c(N)nc4ccc(O)cc4c3n21` [Example 20, (11S)-6-Amino-11-isopropyl-10,11-dihydro-8H-[1,4]oxazino[4′,3′:1,2]imidazo[4,5-c]quinolin-2-ol] the value was 208 to 210 °C. With `Cc1nc(N)c2nc3n(c2c1C)[C@@H](C)COC3` [Example 44, (4S)-4,6,7-Trimethyl-3,4-dihydro-1H-pyrido[3′,4′:4,5]imidazo[2,1-c][1,4]oxazin-9-amine], the melting point is 264 to 267 °C. In the case of `Nc1nc2ccccc2c2c1nc1n2[C@@H](C2CCOCC2)COC1` [Example 43, (11S)-11-Tetrahydro-2H-pyran-4-yl-10,11-dihydro-8H-[1,4]oxazino[4′,3′:1,2]imidazo[4,5-c]quinolin-6-amine] it was 240.4 to 243.4 °C. Compound `CC(C)[C@H]1COCc2nc3c(N)nc4cc(OCC(=O)N5CCOCC5)ccc4c3n21` [Example 58, (11S)-11-Isopropyl-3-(2-morpholin-4-yl-2-oxoethoxy)-10,11-dihydro-8H-[1,4]oxazino[4′,3′:1,2]imidazo[4,5-c]quinolin-6-amine] gave a melting point of 137 to 139 °C. In the case of `C[C@@H]1CN(S(C)(=O)=O)Cc2nc3c(N)nc4ccccc4c3n21` [Example 32, (11R)-11-Methyl-9-(methylsulfonyl)-8,9,10,11-tetrahydropyrazino[1′,2′:1,2]imidazo[4,5-c]quinolin-6-amine] it was 258 to 261 °C. In the case of `C[C@H]1COCc2nc3c(N)nc4ccc(OCCN5CCOCC5)cc4c3n21` [Example 56, (11S)-11-Methyl-2-(2-morpholin-4-ylethoxy)-10,11-dihydro-8H-[1,4]oxazino[4′,3′:1,2]imidazo[4,5-c]quinolin-6-amine] it was 186 to 188 °C. In turn, `CCOc1ccc2nc(N)c3nc4n(c3c2c1)[C@@H](C)COC4` [Example 57, (11S)-2-Ethoxy-11-methyl-10,11-dihydro-8H-[1,4]oxazino[4′,3′:1,2]imidazo[4,5-c]quinolin-6-amine] showed a melting point of 187 to 188 °C. In the case of `Nc1nc2ccccc2c2c1nc1n2[C@@H](COCc2ccc(F)cc2)COC1` [Example 45, (11S)-11-{[(4-Fluorobenzyl)oxy]methyl}-10,11-dihydro-8H-[1,4]oxazino[4′,3′:1,2]imidazo[4,5-c]quinolin-6-amine] it was 134 to 137 °C.
